We go through 14 molecules from PubChem BioAssay AID256 (DTP/NCI, 2004).

Values joined by “and” are separate entries in the source; they are usually repeats but may differ in a detail not shown here. Equal entries are not always repeated. Toxic doses and inconclusive results are not listed. Starred links: 1 amine or outer side, 2 acyl side, 3 side chain; linkers in the order of their positions; H or OH if unused. Positions of bridges follow the written chain, without caps; N, C: chain ends. Non-standard residues stand in square brackets, D forms with d. Residues, ends and D or L forms follow the SMILES beside them. Chains are numbered I, II in the order given. Actinocin(9to1) = Cc1c2oc3c(C)ccc(C(=O)[*:1])c3nc-2c(C(=O)[*:2])c(N)c1=O; aThr = C[C@H](O)[C@H](N)C(=O)O; NMeV = CN[C@H](C(=O)O)C(C)C; Sar = CNCC(=O)O

This experiment concerns CD2F1 mice, L1210 leukemia ip, survival T/C. The experiment in a line: NCI In Vivo Anticancer Drug Screen. Data for tumor model L1210 Leukemia (intraperitoneal) in CD2F1 (CDF1) mice. The settings on record: higher = longer survival. An outline of the steps:
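Ratio T/C, where T is the treated-group value and C the vehicle-dosed control value, from mice implanted with a transplantable tumor.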

Where [1] appears, read: endpoint: mean survival time, dose: 100.0 mg/kg/injection, schedule: Q04DX002 (ip), vehicle: saline.
Where [2] appears, read: endpoint: mean survival time, dose: 200.0 mg/kg/injection, schedule: Q04DX002 (ip), vehicle: saline.
Setting [3] is: endpoint: mean survival time, dose: 400.0 mg/kg/injection, schedule: Q04DX002 (ip), vehicle: saline.
Where [4] appears, read: endpoint: mean survival time, dose: 100.0 mg/kg/injection, schedule: Q04DX002 (ip), vehicle: saline with Tween-80.
Where [5] appears, read: endpoint: mean survival time, dose: 100.0 mg/kg/injection, schedule: Q04DX003 (ip), vehicle: saline with Tween-80.
Setting [6] is: endpoint: mean survival time, dose: 200.0 mg/kg/injection, schedule: Q04DX003 (ip), vehicle: saline with Tween-80.
[7] abbreviates: endpoint: mean survival time, dose: 400.0 mg/kg/injection, schedule: Q04DX003 (ip), vehicle: saline with Tween-80.

In the case of `CC(=O)Nc1nnc(Cl)s1`, the T/C under setting [1] is 101 % of control, the T/C under setting [2] is 97 % of control and the T/C under setting [3] is 104 % of control.

On to `CCOC(=O)C(CCC#N)(CCC#N)C(=O)O`, for which the T/C is, setting by setting: under setting [1], 98 % of control; under setting [2], 111 % of control; under setting [3], 117 % of control.

As to `Cc1cc(C)c2nc(N)sc2c1`, the T/C is 96 % of control (endpoint: mean survival time, dose: 25.0 mg/kg/injection, schedule: Q04DX002 (ip), vehicle: saline with Tween-80); 93 % of control (endpoint: mean survival time, dose: 50.0 mg/kg/injection, schedule: Q04DX002 (ip), vehicle: saline with Tween-80); 93 % of control under setting [4].

As for `CC1C2C=CC1C(c1c3ccc(=O)cc-3oc3cc(O)ccc13)C2C(=O)O` (stereo unspecified), the T/C reads like this: under setting [5], 103 % of control; under setting [6], 97 % of control; under setting [7], 111 % of control.

With `CCOC(=O)NCC(Cl)CP(=O)(c1ccccc1)c1ccccc1` (stereo unspecified), the T/C by setting is: (endpoint: mean survival time, dose: 100.0 mg/kg/injection, schedule: Q01DX001 (ip), vehicle: saline with Tween-80) 92 % of control; (endpoint: mean survival time, dose: 100.0 mg/kg/injection, schedule: Q01DX009 (ip), vehicle: saline with Tween-80) 97 % of control; (endpoint: mean survival time, dose: 200.0 mg/kg/injection, schedule: Q01DX001 (ip), vehicle: saline with Tween-80) 92 % of control; (endpoint: mean survival time, dose: 200.0 mg/kg/injection, schedule: Q01DX009 (ip), vehicle: saline with Tween-80) 97 % of control; (endpoint: mean survival time, dose: 400.0 mg/kg/injection, schedule: Q01DX001 (ip), vehicle: saline with Tween-80) 92 % of control; (endpoint: mean survival time, dose: 400.0 mg/kg/injection, schedule: Q01DX009 (ip), vehicle: saline with Tween-80) 96 % of control.

For the molecule `COc1ccc(NCCOc2ccccc2Br)cc1`, the T/C is, setting by setting: (endpoint: mean survival time, dose: 100.0 mg/kg/injection, schedule: Q04DX003 (ip), vehicle: other) 97 % of control; (endpoint: mean survival time, dose: 200.0 mg/kg/injection, schedule: Q04DX003 (ip), vehicle: other) 101 % of control; (endpoint: mean survival time, dose: 400.0 mg/kg/injection, schedule: Q04DX003 (ip), vehicle: other) 95 % of control.

Consider `OCc1cc(Cl)cc(Cl)c1OCc1ccccc1`, for which the T/C by setting is: (endpoint: mean survival time, dose: 100.0 mg/kg/injection, schedule: Q04DX002 (ip), vehicle: other) 101 % of control; (endpoint: mean survival time, dose: 200.0 mg/kg/injection, schedule: Q04DX002 (ip), vehicle: other) 101 % of control; (endpoint: mean survival time, dose: 400.0 mg/kg/injection, schedule: Q04DX002 (ip), vehicle: other) 101 % of control.

`O=C1C=C(c2ccccc2)C(=O)C(c2ccccc2)=C1c1ccccc1`: the T/C was 94 % of control under setting [4]; 94 % of control (endpoint: mean survival time, dose: 200.0 mg/kg/injection, schedule: Q04DX002 (ip), vehicle: saline with Tween-80); 90 % of control (endpoint: mean survival time, dose: 400.0 mg/kg/injection, schedule: Q04DX002 (ip), vehicle: saline with Tween-80).

As for `Cc1c2oc3c(C)ccc(C(=O)N[C@@H]4C(=O)N[C@H](C(C)C)C(=O)N5CCC[C@H]5C(=O)N(C)CC(=O)N(C)[C@@H](C(C)C)C(=O)O[C@H]4C)c3nc-2c(C(=O)N[C@@H]2C(=O)N[C@H](C(C)C)C(=O)N3CCC[C@H]3C(=O)N(C)CC(=O)N(C)[C@@H](C(C)C)C(=O)O[C@H]2C)c(N)c1=O` (I: [aThr][dV]P[Sar][NMeV] / II: [aThr][dV]P[Sar][NMeV]; ester I:1-I:C, II:1-II:C; linker I:N-II:N via Actinocin(9to1)), the T/C (endpoint: mean survival time, dose: 0.01 mg/kg/injection, schedule: Q04DX003 (ip), vehicle: saline) was 101 % of control; the T/C (endpoint: mean survival time, dose: 0.02 mg/kg/injection, schedule: Q04DX003 (ip), vehicle: saline) is 105 % of control; the T/C (endpoint: mean survival time, dose: 0.03 mg/kg/injection, schedule: Q04DX003 (ip), vehicle: saline) was 107 % of control; the T/C (endpoint: mean survival time, dose: 0.05 mg/kg/injection, schedule: Q04DX003 (ip), vehicle: saline) is 110 % of control; the T/C (endpoint: mean survival time, dose: 0.06 mg/kg/injection, schedule: Q01DX009 (ip), vehicle: saline) is 99 % of control; the T/C (endpoint: mean survival time, dose: 0.1 mg/kg/injection, schedule: Q01DX007 (ip), vehicle: other) is 162 % of control. In addition, the T/C by setting is: (endpoint: mean survival time, dose: 0.1 mg/kg/injection, schedule: Q01DX009 (ip), vehicle: other) 120 % of control; (endpoint: mean survival time, dose: 0.1 mg/kg/injection, schedule: Q03DX003 (ip), vehicle: other) 165 % of control; (endpoint: mean survival time, dose: 0.2 mg/kg/injection, schedule: Q01DX009 (ip), vehicle: other) 90 % of control; (endpoint: mean survival time, dose: 0.2 mg/kg/injection, schedule: Q01DX009 (ip), vehicle: saline) 88 % of control; (endpoint: mean survival time, dose: 0.2 mg/kg/injection, schedule: Q04DX003 (ip), vehicle: other) 164 % of control; (endpoint: mean survival time, dose: 0.4 mg/kg/injection, schedule: Q01DX001 (ip), vehicle: saline) 114 % of control and 120 % of control. In addition, the T/C (endpoint: mean survival time, dose: 0.4 mg/kg/injection, schedule: Q03DX003 (ip), vehicle: other) is 86 % of control; the T/C (endpoint: mean survival time, dose: 0.6 mg/kg/injection, schedule: Q01DX001 (ip), vehicle: saline) is 122 % of control; the T/C (endpoint: mean survival time, dose: 6.25 micrograms/kg/injection, schedule: Q01DX009 (ip), vehicle: saline + alcohol) was 104 % of control; the T/C (endpoint: mean survival time, dose: 6.3 micrograms/kg/injection, schedule: Q01DX009 (ip), vehicle: water) was 106 % of control; the T/C (endpoint: mean survival time, dose: 12.5 micrograms/kg/injection, schedule: Q01DX009 (ip), vehicle: saline + alcohol) is 107 % of control; the T/C (endpoint: mean survival time, dose: 12.5 micrograms/kg/injection, schedule: Q01DX009 (ip), vehicle: water) is 114 % of control and 112 % of control. For the same molecule, the T/C (endpoint: mean survival time, dose: 25.0 micrograms/kg/injection, schedule: Q01DX009 (ip), vehicle: saline + alcohol) was 117 % of control; the T/C (endpoint: mean survival time, dose: 25.0 micrograms/kg/injection, schedule: Q01DX009 (ip), vehicle: water) was 118 % of control and 120 % of control; the T/C (endpoint: mean survival time, dose: 50.0 micrograms/kg/injection, schedule: Q01DX009 (ip), vehicle: saline + alcohol) is 109 % of control; the T/C (endpoint: mean survival time, dose: 100.0 micrograms/kg/injection, schedule: Q01DX009 (ip), vehicle: water) is 115 % of control; the T/C (endpoint: median survival time, dose: 0.07 mg/kg/injection, schedule: Q04DX003 (ip), vehicle: saline) is 122 % of control; the T/C (endpoint: median survival time, dose: 0.13 mg/kg/injection, schedule: Q01DX001 (ip), vehicle: saline) is 115 % of control and 117 % of control and 118 % of control. Further, the T/C runs as follows: (endpoint: median survival time, dose: 0.25 mg/kg/injection, schedule: Q01DX001 (ip), vehicle: saline) 118 % of control and 112 % of control; (endpoint: median survival time, dose: 0.33 mg/kg/injection, schedule: Q04DX003 (ip), vehicle: saline) 89 % of control; (endpoint: median survival time, dose: 0.5 mg/kg/injection, schedule: Q01DX001 (ip), vehicle: saline) 122 % of control; (endpoint: median survival time, dose: 12.5 micrograms/kg/injection, schedule: Q01DX009 (ip), vehicle: saline + alcohol) 113 % of control; (endpoint: median survival time, dose: 25.0 micrograms/kg/injection, schedule: Q01DX009 (ip), vehicle: saline + alcohol) 117 % of control; (endpoint: median survival time, dose: 200.0 micrograms/kg/injection, schedule: Q01DX009 (ip), vehicle: saline + alcohol) 166 % of control.

As for `O=c1nc(OCCO)c([N+](=O)[O-])c(C(Cl)(Cl)Cl)[nH]1`, the T/C by setting is: under setting [5], 96 % of control; under setting [6], 97 % of control; under setting [7], 89 % of control.

Take `O=C1c2ccccc2C(=O)N1CCO`: the T/C was 106 % of control under setting [5], 108 % of control under setting [6] and 110 % of control under setting [7].

For `N#CCCN1c2ccccc2Sc2ccccc21`, the T/C runs as follows: (endpoint: mean survival time, dose: 75.0 mg/kg/injection, schedule: Q04DX003 (ip), vehicle: saline) 102 % of control; (endpoint: mean survival time, dose: 150.0 mg/kg/injection, schedule: Q04DX003 (ip), vehicle: saline) 112 % of control.

Regarding `Cc1cc(Br)ccc1N`, the T/C runs as follows: under setting [5], 97 % of control; under setting [6], 96 % of control; under setting [7], 97 % of control.

On to `N#[N+]c1cnc([O-])[nH]c1=O`, for which the T/C (endpoint: mean survival time, dose: 0.5 mg/kg/injection, schedule: Q07DX Z (ip), vehicle: saline) was 106 % of control; the T/C (endpoint: mean survival time, dose: 1.0 mg/kg/injection, schedule: Q07DX Z (ip), vehicle: saline) was 112 % of control; the T/C (endpoint: mean survival time, dose: 2.0 mg/kg/injection, schedule: Q03DX Z (ip), vehicle: saline) was 112 % of control; the T/C (endpoint: mean survival time, dose: 2.0 mg/kg/injection, schedule: Q07DX Z (ip), vehicle: saline) was 118 % of control; the T/C (endpoint: mean survival time, dose: 4.0 mg/kg/injection, schedule: Q07DX Z (ip), vehicle: saline) was 116 % of control; the T/C (endpoint: mean survival time, dose: 8.0 mg/kg/injection, schedule: Q01DX001 (ip), vehicle: saline) was 112 % of control. Besides, the T/C is 112 % of control (endpoint: mean survival time, dose: 16.0 mg/kg/injection, schedule: Q01DX001 (ip), vehicle: saline); 115 % of control and 117 % of control (endpoint: mean survival time, dose: 32.0 mg/kg/injection, schedule: Q01DX001 (ip), vehicle: saline).
